Data reported in ChEMBL document CHEMBL1811905, “Ligand-based discovery of novel trypanosomicidal drug-like compounds: in silico identification and experimental support” (Eur J Med Chem, 2011).

Assays:
Trypanosoma cruzi [1] = assay: Antitrypanosomal activity against epimastigote forms of Trypanosoma cruzi CL-B5 transfected with Escherichia coli LacZ gene at 100 ug/ml after 72 hrs by chlorophenol red-Beta-D-galactopyranoside-based assay; format: functional
Trypanosoma cruzi [2] = assay: Antitrypanosomal activity against epimastigote forms of Trypanosoma cruzi CL-B5 transfected with Escherichia coli beta-galactosidase gene LacZ at 1 ug/ml after 72 hrs by chlorophenol red-Beta-D-galactopyranoside-based assay; format: functional
Trypanosoma cruzi [3] = assay: Antitrypanosomal activity against epimastigote forms of Trypanosoma cruzi CL-B5 transfected with Escherichia coli beta-galactosidase gene LacZ at 10 ug/ml after 72 hrs by chlorophenol red-Beta-D-galactopyranoside-based assay; format: functional
J774 [4] = assay: Cytotoxicity against mouse J774 cells assessed as reduction in cell viability at 100 ug/ml after 24 hrs by resazurin-based colorimetric assay; conditions: j774, 24 h
J774 [5] = assay: Cytotoxicity against mouse J774 cells assessed as reduction in cell viability at 1 ug/ml after 24 hrs by resazurin-based colorimetric assay; conditions: j774, 24 h
J774 [6] = assay: Cytotoxicity against mouse J774 cells assessed as reduction in cell viability at 10 ug/ml after 24 hrs by resazurin-based colorimetric assay; conditions: j774, 24 h
Trypanosoma cruzi [7] = assay: Antitrypanosomal activity against amastigote forms of Trypanosoma cruzi CL-B5 expressing Escherichia coli LacZ gene infected in NCTC929 fibroblasts at 100 ug/ml after 7 days by chlorophenol red-Beta-D-galactopyranoside-based assay; format: functional
Trypanosoma cruzi [8] = assay: Antitrypanosomal activity against amastigote forms of Trypanosoma cruzi CL-B5 expressing Escherichia coli LacZ gene infected in NCTC929 fibroblasts at 1 ug/ml after 7 days by chlorophenol red-Beta-D-galactopyranoside-based assay; format: functional
Trypanosoma cruzi [9] = assay: Antitrypanosomal activity against amastigote forms of Trypanosoma cruzi CL-B5 expressing Escherichia coli LacZ gene infected in NCTC929 fibroblasts at 10 ug/ml after 7 days by chlorophenol red-Beta-D-galactopyranoside-based assay; format: functional

SMILES | Activity (Trypanosoma cruzi [1]) [%] | Activity (Trypanosoma cruzi [2]) [%] | Activity (Trypanosoma cruzi [3]) [%] | Activity (J774 [4]) [%] | Activity (J774 [5]) [%] | Activity (J774 [6]) [%] | Activity (Trypanosoma cruzi [7]) [%] | Activity (Trypanosoma cruzi [8]) [%] | Activity (Trypanosoma cruzi [9]) [%]
O=C1C[N+]2(CCCCC2)c2ccc([N+](=O)[O-])cc2N1.[Cl-] | 26.2 | 27.2 | 34 |  |  |  |  |  | 
O=C1CN(CCCCCl)c2ccc([N+](=O)[O-])cc2N1 | 70.5 | 21 | 40.8 | 29 | 0 | 7.4 |  |  | 
O=C1CN(CCCCCCl)c2ccc([N+](=O)[O-])cc2N1 | 47.5 | 27.7 | 42.9 | 64.5 | 0 | 32.3 |  |  | 
CC1CS(=O)(=O)CCN1/N=C/c1ccc([N+](=O)[O-])o1 (stereo not drawn) [NIFURTIMOX] | 98.7 | 75.5 | 90 | 25.9 | 0 | 0.6 | 100 | 88.14 | 94.44
CN1C(=O)CN(CCc2ccccc2CCl)c2ccc([N+](=O)[O-])cc21 | 100 | 65.5 | 100 | 14.5 | 0 | 0 | 100 | 35.39 | 56.21
CCOCc1ccccc1CCN1CC(=O)Nc2cc([N+](=O)[O-])ccc21 | 100 | 28.1 | 74.4 | 95.9 |  | 48.5 |  |  | 
CN1C(=O)CN(CCCCCl)c2ccc([N+](=O)[O-])cc21 | 99 | 19.9 | 69.1 | 96.8 |  | 0 |  |  | 39.33
CN1C(=O)CN(CCCCCCCl)c2ccc([N+](=O)[O-])cc21 | 100 | 25.7 | 51.2 | 80.7 |  | 63.9 |  |  | 
O=C1CN(CCc2ccccc2CCl)c2ccc([N+](=O)[O-])cc2N1 | 100 | 43.8 | 96.2 | 76.6 | 4.7 | 75.8 |  |  | 
CN1CC(=O)Nc2cc([N+](=O)[O-])ccc21 | 34.5 | 17.8 | 30.1 |  |  |  |  |  | 
